{"source": "patent US20250235543A1", "about": "“MODIFIED PROTEINS AND PROTEIN DEGRADERS” (Cullgen (Shanghai), Inc., priority 2021, published 2025)", "key": {"cyclin D1": {"tested_on": "cyclin D1", "assay": "Cyclin D1 percentage degradation in Calu-1 cells (immunoblotting)", "type": "cell-based", "conditions": "16 hours", "experimental": "(§1) […] A: protein percentage degradation >=80%; B: protein percentage degradation <80%, and >=50%; C: protein percentage degradation <50%, and >=30%; D: protein percentage degradation <30%.\n(§2) Cultured cells were washed with cold PBS once and lysed in cold RIPA buffer supplemented with protease inhibitors and phosphatase inhibitors (Beyotime Biotechnology). The solutions were then incubated at 4° C. for 30 min with gentle agitation to fully lysed cells. Cell lysates were centrifuged at 13,000 rpm for 10 min at 4° C. and pellets were discarded. Total protein concentrations in the lysates were determined following BCA assays (Beyotime Biotechnology). Cell lysates were mixed with Laemmli loading buffer and heated at 99° C. for 5 min. Proteins were resolved on SDS-PAGE and visualized using Western ECL Substrate kits on a ChemiDoc MP Imaging system (Bio-Rad). Protein bands were quantitated using the Image Lab software provided by Bio-Rad."}, "CDK4": {"target": "T1, CDK4 (Homo sapiens, UniProt P11802)", "T1 construct": "endogenous in cells; host or cells: Calu-1", "T1 sequence (P11802 2-303 limits assumed)": "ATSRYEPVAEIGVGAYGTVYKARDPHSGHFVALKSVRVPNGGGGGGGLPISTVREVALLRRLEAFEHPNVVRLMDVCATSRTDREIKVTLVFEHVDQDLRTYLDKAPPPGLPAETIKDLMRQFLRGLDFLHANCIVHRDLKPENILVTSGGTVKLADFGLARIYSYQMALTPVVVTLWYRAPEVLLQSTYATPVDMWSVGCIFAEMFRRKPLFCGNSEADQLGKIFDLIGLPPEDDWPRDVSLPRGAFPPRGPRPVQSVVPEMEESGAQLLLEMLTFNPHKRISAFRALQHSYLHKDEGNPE", "T1 sequence (P24385 whole entry partner)": "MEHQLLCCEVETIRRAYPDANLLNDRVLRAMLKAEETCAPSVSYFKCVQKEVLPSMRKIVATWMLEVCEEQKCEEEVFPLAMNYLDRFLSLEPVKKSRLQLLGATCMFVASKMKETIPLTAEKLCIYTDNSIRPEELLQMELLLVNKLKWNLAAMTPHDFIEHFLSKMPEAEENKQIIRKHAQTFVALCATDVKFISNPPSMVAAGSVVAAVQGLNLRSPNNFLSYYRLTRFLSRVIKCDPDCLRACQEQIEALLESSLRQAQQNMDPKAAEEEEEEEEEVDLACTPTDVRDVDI", "T1 sequence (Q16531 2-1140 limits assumed, further chain)": "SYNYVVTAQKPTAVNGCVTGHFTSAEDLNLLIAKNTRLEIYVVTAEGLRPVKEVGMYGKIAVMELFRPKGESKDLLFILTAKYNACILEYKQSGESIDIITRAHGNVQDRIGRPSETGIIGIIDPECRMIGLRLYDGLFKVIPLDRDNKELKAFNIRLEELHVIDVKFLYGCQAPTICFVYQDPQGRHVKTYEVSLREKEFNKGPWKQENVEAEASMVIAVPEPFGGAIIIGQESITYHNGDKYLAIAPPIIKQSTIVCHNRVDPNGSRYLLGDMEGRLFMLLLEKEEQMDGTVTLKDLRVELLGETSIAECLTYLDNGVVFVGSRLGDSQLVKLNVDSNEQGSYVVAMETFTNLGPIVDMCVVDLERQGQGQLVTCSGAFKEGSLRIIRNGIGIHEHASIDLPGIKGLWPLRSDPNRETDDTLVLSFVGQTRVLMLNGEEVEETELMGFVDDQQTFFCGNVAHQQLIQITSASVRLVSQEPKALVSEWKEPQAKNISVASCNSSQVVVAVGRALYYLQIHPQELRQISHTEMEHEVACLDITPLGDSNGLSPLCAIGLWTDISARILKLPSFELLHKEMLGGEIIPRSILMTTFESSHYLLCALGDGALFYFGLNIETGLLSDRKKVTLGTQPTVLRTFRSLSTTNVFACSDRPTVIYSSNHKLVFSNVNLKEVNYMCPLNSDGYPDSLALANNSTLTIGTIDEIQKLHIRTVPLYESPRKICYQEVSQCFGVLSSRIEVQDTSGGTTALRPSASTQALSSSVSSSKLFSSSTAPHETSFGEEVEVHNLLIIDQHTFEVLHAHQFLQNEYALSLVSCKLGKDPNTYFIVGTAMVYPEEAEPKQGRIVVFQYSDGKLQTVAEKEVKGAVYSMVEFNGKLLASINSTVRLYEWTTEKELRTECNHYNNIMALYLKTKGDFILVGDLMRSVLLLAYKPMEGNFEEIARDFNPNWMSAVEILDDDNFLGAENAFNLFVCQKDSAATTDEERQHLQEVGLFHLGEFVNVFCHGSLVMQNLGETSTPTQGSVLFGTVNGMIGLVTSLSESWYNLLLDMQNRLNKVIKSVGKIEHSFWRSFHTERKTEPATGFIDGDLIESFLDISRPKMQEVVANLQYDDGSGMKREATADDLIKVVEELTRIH", "assay": "CDK4 percentage degradation in Calu-1 cells (immunoblotting)", "type": "cell-based", "conditions": "for inhibition at 0.2 µM: read-out: CDK4 Degradation (200 nM); for inhibition at 10 µM: read-out: CDK4 Degradation (10 μM)", "experimental": "as §1, §2"}}, "note": "Like-named read-outs stand apart in the source and are kept apart here.", "data": [{"smiles": "CC(=O)c1c(C)c2cnc(Nc3ccc(N4CCN(C(=O)CCC(=O)Nc5ccccc5C(=O)Nc5nc(C)c(C)s5)CC4)cn3)nc2n(C2CCCC2)c1=O", "note": "[CPD-153, 2-(4-(4-(6-((6-Acetyl-8-cyclopentyl-5-methyl-7-oxo-7,8-dihydropyrido[2,3-d]pyrimidin-2-yl)amino)pyridin-3-yl)piperazin-1-yl)-4-oxobutanamido)-N-(4,5-dimethylthiazol-2-yl)benzamide]", "values": [{"measurement": "CyclinD1 Degradation (200 nM)", "setting": "cyclin D1", "value": "D (protein percentage degradation <30%)"}, {"measurement": "inhibition at 0.2 µM", "setting": "CDK4; Calu-1, 16 h", "value": "< 30", "unit": "%"}]}, {"smiles": "CC(=O)c1c(C)c2cnc(Nc3ccc(N4CCN(CC(=O)NCCOCCOCCC(=O)Nc5ccccc5C(=O)Nc5cc(C6CC6)n(C)n5)CC4)cn3)nc2n(C2CCCC2)c1=O", "note": "[CPD-079, 2-(3-(2-(2-(2-(4-(6-((6-Acetyl-8-cyclopentyl-5-methyl-7-oxo-7,8-dihydropyrido[2,3-d]pyrimidin-2-yl)amino)pyridin-3-yl)piperazin-1-yl)acetamido)ethoxy)ethoxy)propanamido)-N-(5-cyclopropyl-1-methyl-1H-pyrazol-3-yl)benzamide]", "values": [{"measurement": "CyclinD1 Degradation (200 nM)", "setting": "cyclin D1", "value": "D (protein percentage degradation <30%)"}, {"measurement": "inhibition at 0.2 µM", "setting": "CDK4; Calu-1 cells, 200 nM, 16 hours", "value": "< 30", "unit": "%"}]}, {"smiles": "CC(=O)c1c(C)c2cnc(Nc3ccc(N4CCN(CC(=O)NCCCCCCCNc5cccc(C(=O)Nc6cc(C)n(C)n6)c5C)CC4)cn3)nc2n(C2CCCC2)c1=O", "note": "[CPD-329, 3-((7-(2-(4-(6-((6-Acetyl-8-cyclopentyl-5-methyl-7-oxo-7,8-dihydropyrido[2,3-d]pyrimidin-2-yl)amino)pyridin-3-yl)piperazin-1-yl)acetamido)heptyl)amino)-N-(1,5-dimethyl-1H-pyrazol-3-yl)-2-methylbenzamide]", "values": [{"measurement": "CyclinD1 Degradation (200 nM)", "setting": "cyclin D1", "value": "A (protein percentage degradation >=80%)"}, {"measurement": "inhibition at 0.2 µM", "setting": "CDK4; Calu-1 cells, 200 nM, 16 hours", "value": "> 80", "unit": "%"}]}, {"smiles": "COc1ccc(NC(=O)c2cccc(NCCOCCOCCNC(=O)CN3CCN(c4ccc(Nc5ncc6c(C)c(C(C)=O)c(=O)n(C7CCCC7)c6n5)nc4)CC3)c2C)nn1", "note": "[CPD-341, 3-((2-(2-(2-(2-(4-(6-((6-Acetyl-8-cyclopentyl-5-methyl-7-oxo-7,8-dihydropyrido[2,3-d]pyrimidin-2-yl)amino)pyridin-3-yl)piperazin-1-yl)acetamido)ethoxy)ethoxy)ethyl)amino)-N-(6-methoxypyridazin-3-yl)-2-methylbenzamide]", "values": [{"measurement": "CyclinD1 Degradation (200 nM)", "setting": "cyclin D1", "value": "D (protein percentage degradation <30%)"}, {"measurement": "inhibition at 0.2 µM", "setting": "CDK4; Calu-1 cells, 200 nM, 16 hours", "value": "< 30", "unit": "%"}]}, {"smiles": "CC(=O)c1c(C)c2cnc(Nc3ccc(N4CCN(CC(=O)NCCOCCOCCC(=O)Nc5cc(Br)ccc5C(=O)Nc5nc(C)c(C)s5)CC4)cn3)nc2n(C2CCCC2)c1=O", "note": "[CPD-144, 2-(3-(2-(2-(2-(4-(6-((6-Acetyl-8-cyclopentyl-5-methyl-7-oxo-7,8-dihydropyrido[2,3-d]pyrimidin-2-yl)amino)pyridin-3-yl)piperazin-1-yl)acetamido)ethoxy)ethoxy)propanamido)-4-bromo-N-(4,5-dimethylthiazol-2-yl)benzamide]", "values": [{"measurement": "CyclinD1 Degradation (200 nM)", "setting": "cyclin D1", "value": "A (protein percentage degradation >=80%)"}, {"measurement": "inhibition at 0.2 µM", "setting": "CDK4; Calu-1 cells, 200 nM, 16 hours", "value": "50 to 80", "unit": "%"}]}, {"smiles": "CC(=O)c1c(C)c2cnc(Nc3ccc(N4CCN(CC(=O)NCCOCCOCCC(=O)Nc5ccccc5C(=O)Nc5nc(C6CC6)c(C)s5)CC4)cn3)nc2n(C2CCCC2)c1=O", "note": "[CPD-057, 2-(3-(2-(2-(2-(4-(6-((6-Acetyl-8-cyclopentyl-5-methyl-7-oxo-7,8-dihydropyrido[2,3-d]pyrimidin-2-yl)amino)pyridin-3-yl)piperazin-1-yl)acetamido)ethoxy)ethoxy)propanamido)-N-(4-cyclopropyl-5-methylthiazol-2-yl)benzamide]", "values": [{"measurement": "CyclinD1 Degradation (200 nM)", "setting": "cyclin D1", "value": "A (protein percentage degradation >=80%)"}, {"measurement": "inhibition at 0.2 µM", "setting": "CDK4; Calu-1 cells, 200 nM, 16 hours", "value": "50 to 80", "unit": "%"}]}, {"smiles": "Cc1nc(NC(=O)c2ccccc2NC(=O)CCCCNC(=O)CN2CCN(c3ccc(Nc4ncc5cc(C(=O)N(C)C)n(C6CCCC6)c5n4)nc3)CC2)sc1C", "note": "[CPD-289, 7-Cyclopentyl-2-((5-(4-(2-((5-((2-((4,5-dimethylthiazol-2-yl)carbamoyl)phenyl)amino)-5-oxopentyl)amino)-2-oxoethyl)piperazin-1-yl)pyridin-2-yl)amino)-N,N-dimethyl-7H-pyrrolo[2,3-d]pyrimidine-6-carboxamide]", "values": [{"measurement": "CyclinD1 Degradation (10 μM)", "setting": "cyclin D1", "value": "A (protein percentage degradation >= 80%)"}, {"measurement": "inhibition at 10 µM", "setting": "CDK4; Calu-1 cells, 16 hours", "value": "30 to 50", "unit": "%"}]}, {"smiles": "CC(=O)c1c(C)c2cnc(Nc3ccc(N4CCN(CC(=O)NCCOCCOCCC(=O)Nc5cc6c(cc5C(=O)Nc5ccc(C)cn5)CCCN6)CC4)cn3)nc2n(C2CCCC2)c1=O", "note": "[CPD-358, 7-(3-(2-(2-(2-(4-(6-((6-Acetyl-8-cyclopentyl-5-methyl-7-oxo-7,8-dihydropyrido[2,3-d]pyrimidin-2-yl)amino)pyridin-3-yl)piperazin-1-yl)acetamido)ethoxy)ethoxy)propanamido)-N-(5-methylpyridin-2-yl)-1,2,3,4-tetrahydroquinoline-6-carboxamide]", "values": [{"measurement": "CyclinD1 Degradation (200 nM)", "setting": "cyclin D1", "value": "A (protein percentage degradation >=80%)"}, {"measurement": "inhibition at 0.2 µM", "setting": "CDK4; Calu-1 cells, 200 nM, 16 hours", "value": "50 to 80", "unit": "%"}]}, {"smiles": "CC(=O)c1c(C)c2cnc(Nc3ccc(N4CCN(CC(=O)NCCOCCOCCC(=O)Nc5ccccc5C(=O)Nc5nc(C6CCOCC6)c(C)s5)CC4)cn3)nc2n(C2CCCC2)c1=O", "note": "[CPD-062, 2-(3-(2-(2-(2-(4-(6-((6-Acetyl-8-cyclopentyl-5-methyl-7-oxo-7,8-dihydropyrido[2,3-d]pyrimidin-2-yl)amino)pyridin-3-yl)piperazin-1-yl)acetamido)ethoxy)ethoxy)propanamido)-N-(5-methyl-4-(tetrahydro-2H-pyran-4-yl)thiazol-2-yl)benzamide]", "values": [{"measurement": "CyclinD1 Degradation (200 nM)", "setting": "cyclin D1", "value": "D (protein percentage degradation <30%)"}, {"measurement": "inhibition at 0.2 µM", "setting": "CDK4; Calu-1 cells, 200 nM, 16 hours", "value": "< 30", "unit": "%"}]}, {"smiles": "Cc1nc(NC(=O)c2ccccc2NC(=O)CCOCCOCCOCCOCCOCCOCCNC(=O)CN2CCN(c3ccc(Nc4ncc5cc(C(=O)N(C)C)n(C6CCCC6)c5n4)nc3)CC2)sc1C", "note": "[CPD-299, 7-Cyclopentyl-2-((5-(4-(24-((2-((4,5-dimethylthiazol-2-yl)carbamoyl)phenyl)amino)-2,24-dioxo-6,9,12,15,18,21-hexaoxa-3-azatetracosyl)piperazin-1-yl)pyridin-2-yl)amino)-N,N-dimethyl-7H-pyrrolo[2,3-d]pyrimidine-6-carboxamide]", "values": [{"measurement": "CyclinD1 Degradation (10 μM)", "setting": "cyclin D1", "value": "B (protein percentage degradation < 80%, and >= 50%)"}, {"measurement": "inhibition at 10 µM", "setting": "CDK4; Calu-1 cells, 16 hours", "value": "30 to 50", "unit": "%"}]}, {"smiles": "CC(=O)c1c(C)c2cnc(Nc3ccc(N4CCN(CC(=O)NCCOCCOCCOCCOCCOCCNc5ccc(C(=O)Nc6ncc(C7CC7)s6)c(C)c5)CC4)cn3)nc2n(C2CCCC2)c1=O", "note": "[CPD-029, 4-((1-(4-(6-((6-Acetyl-8-cyclopentyl-5-methyl-7-oxo-7,8-dihydropyrido[2,3-d]pyrimidin-2-yl)amino)pyridin-3-yl)piperazin-1-yl)-2-oxo-6,9,12,15,18-pentaoxa-3-azaicosan-20-yl)amino)-N-(5-cyclopropylthiazol-2-yl)-2-methylbenzamide]", "values": [{"measurement": "CyclinD1 Degradation (200 nM)", "setting": "cyclin D1", "value": "D (protein percentage degradation <30%)"}, {"measurement": "inhibition at 0.2 µM", "setting": "CDK4; Calu-1 cells, 200 nM, 16 hours", "value": "< 30", "unit": "%"}]}, {"smiles": "CC(=O)c1c(C)c2cnc(Nc3ccc(N4CCN(CC(=O)NCCCCCCCCNc5cccc(C(=O)Nc6nc(C)c(C)s6)c5C)CC4)cn3)nc2n(C2CCCC2)c1=O", "note": "[CPD-090, 3-((8-(2-(4-(6-((6-Acetyl-8-cyclopentyl-5-methyl-7-oxo-7,8-dihydropyrido[2,3-d]pyrimidin-2-yl)amino)pyridin-3-yl)piperazin-1-yl)acetamido)octyl)amino)-N-(4,5-dimethylthiazol-2-yl)-2-methylbenzamide]", "values": [{"measurement": "CyclinD1 Degradation (200 nM)", "setting": "cyclin D1", "value": "A (protein percentage degradation >=80%)"}, {"measurement": "inhibition at 0.2 µM", "setting": "CDK4; Calu-1 cells, 200 nM, 16 hours", "value": "50 to 80", "unit": "%"}]}, {"smiles": "Cc1nc(NC(=O)c2ccccc2NC(=O)CNC(=O)CN2CCN(c3ccc(Nc4ncc5cc(C(=O)N(C)C)n(C6CCCC6)c5n4)nc3)CC2)sc1C", "note": "[CPD-286, 7-Cyclopentyl-2-((5-(4-(2-((2-((2-((4,5-dimethylthiazol-2-yl)carbamoyl)phenyl)amino)-2-oxoethyl)amino)-2-oxoethyl)piperazin-1-yl)pyridin-2-yl)amino)-N,N-dimethyl-7H-pyrrolo[2,3-d]pyrimidine-6-carboxamide]", "values": [{"measurement": "CyclinD1 Degradation (10 μM)", "setting": "cyclin D1", "value": "A (protein percentage degradation >= 80%)"}, {"measurement": "inhibition at 10 µM", "setting": "CDK4; Calu-1 cells, 16 hours", "value": "50 to 80", "unit": "%"}]}, {"smiles": "CC(=O)c1c(C)c2cnc(Nc3ccc(N4CCN(CC(=O)NCCCCCCCCCNC(=O)c5ccc(C(=O)Nc6ncc(C)s6)c(C)c5)CC4)cn3)nc2n(C2CCCC2)c1=O", "note": "[CPD-024, N^4-(9-(2-(4-(6-((6-Acetyl-8-cyclopentyl-5-methyl-7-oxo-7,8-dihydropyrido[2,3-d]pyrimidin-2-yl)amino)pyridin-3-yl)piperazin-1-yl)acetamido)nonyl)-2-methyl-N^1-(5-methylthiazol-2-yl)terephthalamide]", "values": [{"measurement": "CyclinD1 Degradation (200 nM)", "setting": "cyclin D1", "value": "D (protein percentage degradation <30%)"}, {"measurement": "inhibition at 0.2 µM", "setting": "CDK4; Calu-1 cells, 200 nM, 16 hours", "value": "< 30", "unit": "%"}]}, {"smiles": "CC(=O)c1c(C)c2cnc(Nc3ccc(N4CCN(CC(=O)NCCOCCOCCOCCOCCOCCNC(=O)c5ccc(C(=O)Nc6ncc(C)s6)c(C)c5)CC4)cn3)nc2n(C2CCCC2)c1=O", "note": "[CPD-008, N^4-(1-(4-(6-((6-Acetyl-8-cyclopentyl-5-methyl-7-oxo-7,8-dihydropyrido[2,3-d]pyrimidin-2-yl)amino)pyridin-3-yl)piperazin-1-yl)-2-oxo-6,9,12,15,18-pentaoxa-3-azaicosan-20-yl)-2-methyl-N^1-(5-methylthiazol-2-yl)terephthalamide]", "values": [{"measurement": "CyclinD1 Degradation (200 nM)", "setting": "cyclin D1", "value": "D (protein percentage degradation <30%)"}, {"measurement": "inhibition at 0.2 µM", "setting": "CDK4; Calu-1 cells, 200 nM, 16 hours", "value": "< 30", "unit": "%"}]}]}
